Columns and labels:
αllbβ3 integrin = biological target: T1, αllbβ3 integrin (Homo sapiens, UniProt P05106+P08514); test: ELISA: inhibition of binding of αllbβ3 integrin membrane preparation to coated extracellular matrix protein; conditions: human platelet membrane preparation
T1 construct: Human platelet membrane preparations were used as a source of αllbβ3 integrin; from tissue; host or cells: human platelets (membrane preparation)
Outline: (§1)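 Integrin sources were human platelet membrane preparations for αIIbβ3 and WM-115 cells for αVβ3, each preincubated with test compound. Binding to fibrinogen- or vitronectin-coated plates (10 µg/well) was quantified with an anti-integrin β3 antibody and an HRP-coupled secondary antibody using colorimetric detection.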

αVβ3 integrin = biological target: T2, αVβ3 integrin (Homo sapiens, UniProt P05106+P06756); test: ELISA: inhibition of binding of αVβ3 integrin (source WM-115 cell line) to coated extracellular matrix protein; conditions: WM-115 cell line as integrin source
T2 construct: the cell line WM-115 was used as a source of αVβ3 integrin; endogenous in cells; host or cells: WM-115 cell line
Outline: as §1

T2 sequence (P06756 31-889 limits assumed): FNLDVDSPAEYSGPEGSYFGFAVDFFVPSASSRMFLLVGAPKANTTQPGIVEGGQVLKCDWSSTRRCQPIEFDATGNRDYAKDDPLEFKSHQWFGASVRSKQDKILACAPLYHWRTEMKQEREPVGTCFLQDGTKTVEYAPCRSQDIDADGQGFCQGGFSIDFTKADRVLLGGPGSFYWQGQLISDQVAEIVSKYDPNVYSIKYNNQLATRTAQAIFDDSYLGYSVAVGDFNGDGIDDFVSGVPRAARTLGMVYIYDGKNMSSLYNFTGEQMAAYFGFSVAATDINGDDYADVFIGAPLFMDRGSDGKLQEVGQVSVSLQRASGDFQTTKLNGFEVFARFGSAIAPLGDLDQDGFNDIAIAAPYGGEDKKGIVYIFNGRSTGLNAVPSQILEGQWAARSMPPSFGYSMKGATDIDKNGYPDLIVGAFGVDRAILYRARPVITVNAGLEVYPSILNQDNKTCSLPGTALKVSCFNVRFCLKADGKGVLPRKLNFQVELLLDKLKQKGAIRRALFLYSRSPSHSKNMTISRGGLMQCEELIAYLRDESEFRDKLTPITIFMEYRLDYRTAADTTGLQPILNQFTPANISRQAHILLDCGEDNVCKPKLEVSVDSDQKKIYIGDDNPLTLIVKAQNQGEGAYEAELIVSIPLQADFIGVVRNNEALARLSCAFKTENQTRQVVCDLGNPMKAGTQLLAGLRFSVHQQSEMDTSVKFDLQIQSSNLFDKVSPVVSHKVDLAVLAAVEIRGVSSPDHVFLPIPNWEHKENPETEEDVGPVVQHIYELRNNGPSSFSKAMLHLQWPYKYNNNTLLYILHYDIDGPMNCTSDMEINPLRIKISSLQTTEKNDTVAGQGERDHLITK
T2 sequence (P06756 891-1048 partner limits assumed): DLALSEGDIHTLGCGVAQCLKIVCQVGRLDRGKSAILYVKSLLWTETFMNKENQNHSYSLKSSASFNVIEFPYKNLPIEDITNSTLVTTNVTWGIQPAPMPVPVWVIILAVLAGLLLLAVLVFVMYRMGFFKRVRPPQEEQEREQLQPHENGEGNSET
T2 sequence (P05106 27-788): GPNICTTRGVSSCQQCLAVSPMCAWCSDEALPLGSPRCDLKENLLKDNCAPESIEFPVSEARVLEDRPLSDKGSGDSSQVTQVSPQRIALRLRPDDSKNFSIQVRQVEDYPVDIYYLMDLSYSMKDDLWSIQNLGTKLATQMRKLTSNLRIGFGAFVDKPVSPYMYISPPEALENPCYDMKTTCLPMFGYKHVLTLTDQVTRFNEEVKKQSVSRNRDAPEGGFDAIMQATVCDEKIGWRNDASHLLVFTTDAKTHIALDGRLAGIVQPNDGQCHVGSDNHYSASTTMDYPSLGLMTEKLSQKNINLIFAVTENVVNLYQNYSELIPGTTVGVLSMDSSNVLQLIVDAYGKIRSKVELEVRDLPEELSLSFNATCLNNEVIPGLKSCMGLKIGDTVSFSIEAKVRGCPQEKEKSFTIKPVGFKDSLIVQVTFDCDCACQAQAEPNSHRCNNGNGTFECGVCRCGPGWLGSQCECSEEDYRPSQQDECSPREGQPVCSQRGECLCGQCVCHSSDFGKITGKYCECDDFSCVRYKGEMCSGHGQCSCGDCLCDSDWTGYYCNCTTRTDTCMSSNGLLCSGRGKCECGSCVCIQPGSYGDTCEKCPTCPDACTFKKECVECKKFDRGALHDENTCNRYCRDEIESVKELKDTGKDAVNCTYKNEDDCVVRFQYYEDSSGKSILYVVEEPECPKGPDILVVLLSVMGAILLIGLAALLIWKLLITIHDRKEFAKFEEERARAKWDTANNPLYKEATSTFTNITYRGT
T1 sequence (P08514 32-887 limits assumed): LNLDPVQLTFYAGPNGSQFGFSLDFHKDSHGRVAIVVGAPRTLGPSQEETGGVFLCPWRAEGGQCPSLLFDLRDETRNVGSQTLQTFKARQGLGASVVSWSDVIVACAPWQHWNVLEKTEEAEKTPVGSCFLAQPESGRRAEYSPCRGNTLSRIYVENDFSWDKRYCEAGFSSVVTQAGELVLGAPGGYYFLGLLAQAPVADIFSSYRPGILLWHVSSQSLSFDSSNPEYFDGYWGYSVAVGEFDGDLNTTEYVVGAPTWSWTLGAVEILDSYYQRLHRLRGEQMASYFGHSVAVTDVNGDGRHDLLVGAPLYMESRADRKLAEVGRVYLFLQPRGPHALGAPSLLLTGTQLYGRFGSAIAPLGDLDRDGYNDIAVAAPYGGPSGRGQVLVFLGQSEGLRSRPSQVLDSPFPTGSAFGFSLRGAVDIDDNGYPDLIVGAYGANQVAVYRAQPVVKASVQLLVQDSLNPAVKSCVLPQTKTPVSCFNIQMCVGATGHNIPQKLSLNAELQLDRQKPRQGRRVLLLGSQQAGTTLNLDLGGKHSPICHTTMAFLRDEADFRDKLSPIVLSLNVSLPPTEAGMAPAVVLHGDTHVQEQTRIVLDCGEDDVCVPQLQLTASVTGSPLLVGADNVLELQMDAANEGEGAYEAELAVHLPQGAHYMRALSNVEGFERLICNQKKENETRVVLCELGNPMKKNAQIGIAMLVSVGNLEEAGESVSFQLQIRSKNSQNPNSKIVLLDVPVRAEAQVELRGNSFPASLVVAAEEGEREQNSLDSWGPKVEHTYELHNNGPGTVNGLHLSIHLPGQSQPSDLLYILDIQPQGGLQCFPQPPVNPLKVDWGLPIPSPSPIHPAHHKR
T1 sequence (P08514 891-1039 partner limits assumed): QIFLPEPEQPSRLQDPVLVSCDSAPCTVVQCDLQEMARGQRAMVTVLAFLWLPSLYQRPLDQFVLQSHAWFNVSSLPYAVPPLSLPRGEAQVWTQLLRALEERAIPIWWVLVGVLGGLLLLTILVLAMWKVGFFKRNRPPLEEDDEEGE
T1 sequence (P05106 27-788): as the sequence (P05106 27-788) above

Structure (SMILES): CCOC1C(O)C(COCc2cccc(N)c2)OC(OCc2ccccc2)C1NC(=O)CCC(=O)O (single isomer, unassigned) [Compound 88]
- INHIBITION @ 250 uM RECEPTOR allBb3 SUBSTRATE FIBRINOGEN (αllbβ3 integrin): − (0% to 35% inhibition at 250 micromolar)
- INHIBITION 250 uM RECEPTOR allBb3 SUBSTRATE VITRONECTIN (αllbβ3 integrin): ++ (61% to 80% inhibition at 250 micromolar)
- INHIBITION 250 uM RECEPTOR aVb3 SUBSTRATE FIBRINOGEN (αVβ3 integrin): − (0% to 35% inhibition at 250 micromolar)

Structure (SMILES): CCOC1C(O)C(COCc2cccc(N)c2)OC(OCc2ccccc2)C1NC(=O)CCC(=O)O (single isomer, unassigned) [Compound 89]
- INHIBITION @ 250 uM RECEPTOR allBb3 SUBSTRATE FIBRINOGEN (αllbβ3 integrin): − (0% to 35% inhibition at 250 micromolar)
- INHIBITION 250 uM RECEPTOR allBb3 SUBSTRATE VITRONECTIN (αllbβ3 integrin): +++ (81% to 100% inhibition at 250 micromolar)
- INHIBITION 250 uM RECEPTOR aVb3 SUBSTRATE FIBRINOGEN (αVβ3 integrin): + (36% to 60% inhibition at 250 micromolar)

Structure (SMILES): COCC1OC(OCc2ccccc2)C(NC(=O)CCNC(=N)N)C(OCC(=O)O)C1O (single isomer, unassigned) [Compound 90]
- INHIBITION @ 250 uM RECEPTOR allBb3 SUBSTRATE FIBRINOGEN (αllbβ3 integrin): − (0% to 35% inhibition at 250 micromolar)
- INHIBITION 250 uM RECEPTOR allBb3 SUBSTRATE VITRONECTIN (αllbβ3 integrin): +++ (81% to 100% inhibition at 250 micromolar)
- INHIBITION 250 uM RECEPTOR aVb3 SUBSTRATE FIBRINOGEN (αVβ3 integrin): − (0% to 35% inhibition at 250 micromolar)

Structure (SMILES): COCC1OC(OCc2ccccc2)C(NC(=O)CCNC(=N)N)C(OCC(=O)O)C1O (single isomer, unassigned) [Compound 91]
- INHIBITION @ 250 uM RECEPTOR allBb3 SUBSTRATE FIBRINOGEN (αllbβ3 integrin): + (36% to 60% inhibition at 250 micromolar)
- INHIBITION 250 uM RECEPTOR allBb3 SUBSTRATE VITRONECTIN (αllbβ3 integrin): + (36% to 60% inhibition at 250 micromolar)
- INHIBITION 250 uM RECEPTOR aVb3 SUBSTRATE FIBRINOGEN (αVβ3 integrin): − (0% to 35% inhibition at 250 micromolar)

Structure (SMILES): CCOCC1OC(OCc2ccccc2)C(NC(=O)CCNC(=N)N)C(OCC(=O)O)C1O (single isomer, unassigned) [Compound 92]
- INHIBITION @ 250 uM RECEPTOR allBb3 SUBSTRATE FIBRINOGEN (αllbβ3 integrin): + (36% to 60% inhibition at 250 micromolar)
- INHIBITION 250 uM RECEPTOR allBb3 SUBSTRATE VITRONECTIN (αllbβ3 integrin): +++ (81% to 100% inhibition at 250 micromolar)
- INHIBITION 250 uM RECEPTOR aVb3 SUBSTRATE FIBRINOGEN (αVβ3 integrin): ++ (61% to 80% inhibition at 250 micromolar)

Structure (SMILES): CCOCC1OC(OCc2ccccc2)C(NC(=O)CCNC(=N)N)C(OCC(=O)O)C1O (single isomer, unassigned) [Compound 93]
- INHIBITION @ 250 uM RECEPTOR allBb3 SUBSTRATE FIBRINOGEN (αllbβ3 integrin): − (0% to 35% inhibition at 250 micromolar)
- INHIBITION 250 uM RECEPTOR allBb3 SUBSTRATE VITRONECTIN (αllbβ3 integrin): +++ (81% to 100% inhibition at 250 micromolar)
- INHIBITION 250 uM RECEPTOR aVb3 SUBSTRATE FIBRINOGEN (αVβ3 integrin): +++ (81% to 100% inhibition at 250 micromolar)

Structure (SMILES): N=C(N)NCCC(=O)NC1C(OCc2ccccc2)OC(CO)C(O)C1OCC(=O)O (single isomer, unassigned) [Compound 94]
- INHIBITION @ 250 uM RECEPTOR allBb3 SUBSTRATE FIBRINOGEN (αllbβ3 integrin): − (0% to 35% inhibition at 250 micromolar)
- INHIBITION 250 uM RECEPTOR allBb3 SUBSTRATE VITRONECTIN (αllbβ3 integrin): + (36% to 60% inhibition at 250 micromolar)
- INHIBITION 250 uM RECEPTOR aVb3 SUBSTRATE FIBRINOGEN (αVβ3 integrin): − (0% to 35% inhibition at 250 micromolar)

Structure (SMILES): CC(=O)NC1C(OCc2ccccc2)OC(COCc2cccc(N)c2)C(O)C1OCC(=O)O (single isomer, unassigned) [Compound 95]
- INHIBITION @ 250 uM RECEPTOR allBb3 SUBSTRATE FIBRINOGEN (αllbβ3 integrin): − (0% to 35% inhibition at 250 micromolar)
- INHIBITION 250 uM RECEPTOR allBb3 SUBSTRATE VITRONECTIN (αllbβ3 integrin): ++ (61% to 80% inhibition at 250 micromolar)
- INHIBITION 250 uM RECEPTOR aVb3 SUBSTRATE FIBRINOGEN (αVβ3 integrin): − (0% to 35% inhibition at 250 micromolar)

Structure (SMILES): CC(=O)NC1C(OCc2ccccc2)OC(COCc2cccc(N)c2)C(O)C1OCC(=O)O (single isomer, unassigned) [Compound 96]
- INHIBITION @ 250 uM RECEPTOR allBb3 SUBSTRATE FIBRINOGEN (αllbβ3 integrin): − (0% to 35% inhibition at 250 micromolar)
- INHIBITION 250 uM RECEPTOR allBb3 SUBSTRATE VITRONECTIN (αllbβ3 integrin): + (36% to 60% inhibition at 250 micromolar)
- INHIBITION 250 uM RECEPTOR aVb3 SUBSTRATE FIBRINOGEN (αVβ3 integrin): − (0% to 35% inhibition at 250 micromolar)

Structure (SMILES): COCC1OC(OCc2ccccc2)C(NC(=O)CCNC(=N)N)C(OCc2ccc(C(=O)O)cc2)C1O (single isomer, unassigned) [Compound 97]
- INHIBITION @ 250 uM RECEPTOR allBb3 SUBSTRATE FIBRINOGEN (αllbβ3 integrin): − (0% to 35% inhibition at 250 micromolar)
- INHIBITION 250 uM RECEPTOR allBb3 SUBSTRATE VITRONECTIN (αllbβ3 integrin): − (0% to 35% inhibition at 250 micromolar)
- INHIBITION 250 uM RECEPTOR aVb3 SUBSTRATE FIBRINOGEN (αVβ3 integrin): − (0% to 35% inhibition at 250 micromolar)

Structure (SMILES): COCC1OC(OCc2ccccc2)C(NC(=O)CCNC(=N)N)C(OCc2ccc(C(=O)O)cc2)C1O (single isomer, unassigned) [Compound 98]
- INHIBITION @ 250 uM RECEPTOR allBb3 SUBSTRATE FIBRINOGEN (αllbβ3 integrin): − (0% to 35% inhibition at 250 micromolar)
- INHIBITION 250 uM RECEPTOR allBb3 SUBSTRATE VITRONECTIN (αllbβ3 integrin): +++ (81% to 100% inhibition at 250 micromolar)
- INHIBITION 250 uM RECEPTOR aVb3 SUBSTRATE FIBRINOGEN (αVβ3 integrin): − (0% to 35% inhibition at 250 micromolar)

Structure (SMILES): CCOCC1OC(OCc2ccccc2)C(NC(=O)c2cccc(N)c2)C(OCc2ccc(C(=O)O)cc2)C1O (single isomer, unassigned) [Compound 99]
- INHIBITION @ 250 uM RECEPTOR allBb3 SUBSTRATE FIBRINOGEN (αllbβ3 integrin): − (0% to 35% inhibition at 250 micromolar)
- INHIBITION 250 uM RECEPTOR allBb3 SUBSTRATE VITRONECTIN (αllbβ3 integrin): ++ (61% to 80% inhibition at 250 micromolar)
- INHIBITION 250 uM RECEPTOR aVb3 SUBSTRATE FIBRINOGEN (αVβ3 integrin): − (0% to 35% inhibition at 250 micromolar)

From US20080176936A1, “Classes of Compounds that Interact with Integrins” (priority 2005, published 2008)
